From PubChem BioAssay AID330 (DTP/NCI, 2004)
Several values for one entry are separate records, joined by “and”; a condition that tells them apart may be missing. Equal entries are not always repeated. Inconclusive results and toxic doses are left out.

Test system: P388 leukemia ip, CD2F1 mice, survival T/C
Assay: NCI In Vivo Anticancer Drug Screen. Data for tumor model P388 Leukemia (intraperitoneal) in CD2F1 (CDF1) mice
Settings: endpoint: median survival time, higher = longer survival
In short: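 Mice carrying the transplanted tumor received test compound or vehicle. Survival was recorded in each group, and the value is the treated-group measurement divided by that of the vehicle-treated control group.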

Cn1ccc(N)nc1=O
T/C (dose: 50.0 mg/kg/injection, schedule: Q01DX005 (ip), vehicle: saline): 101 % of control | T/C (dose: 100.0 mg/kg/injection, schedule: Q01DX005 (ip), vehicle: saline): 107 % of control | T/C (dose: 200.0 mg/kg/injection, schedule: Q01DX005 (ip), vehicle: saline): 104 % of control

CC12CC3CC(C)(C1)CC(C(Cl)C(=O)NC(C)(C)C)(C3)C2 (centres undefined)
T/C (dose: 50.0 mg/kg/injection, schedule: Q01DX009 (ip), vehicle: Klucel (hydroxypropylcellulose) (HPC)): 97 % of control | T/C (dose: 100.0 mg/kg/injection, schedule: Q01DX009 (ip), vehicle: Klucel (hydroxypropylcellulose) (HPC)): 100 % of control | T/C (dose: 200.0 mg/kg/injection, schedule: Q01DX009 (ip), vehicle: Klucel (hydroxypropylcellulose) (HPC)): 93 % of control

CC(C)(C)c1ccc(C(O)(C(F)(F)F)C(F)(F)F)cc1
T/C (dose: 100.0 mg/kg/injection, schedule: Q04DX002 (ip), vehicle: Klucel (hydroxypropylcellulose) (HPC)): 94 % of control | T/C (dose: 200.0 mg/kg/injection, schedule: Q04DX002 (ip), vehicle: Klucel (hydroxypropylcellulose) (HPC)): 94 % of control | T/C (dose: 400.0 mg/kg/injection, schedule: Q04DX002 (ip), vehicle: Klucel (hydroxypropylcellulose) (HPC)): 109 % of control

Cc1c2cc[n+](C)cc2c(C)c2c1[nH]c1ccc(O)cc12
T/C (dose: 0.25 mg/kg/injection, schedule: Q04DX003 (ip), vehicle: water): 115 % of control | T/C (dose: 0.25 mg/kg/injection, schedule: Q04DX003 (iv), vehicle: water): 94 % of control | T/C (dose: 0.5 mg/kg/injection, schedule: Q04DX003 (iv), vehicle: water): 93 % of control | T/C (dose: 0.78 mg/kg/injection, schedule: Q04DX003 (ip), vehicle: saline): 152 % of control | T/C (dose: 1.0 mg/kg/injection, schedule: Q04DX003 (ip), vehicle: water): 151 % of control | T/C (dose: 1.0 mg/kg/injection, schedule: Q04DX003 (iv), vehicle: water): 100 % of control | T/C (dose: 1.56 mg/kg/injection, schedule: Q04DX003 (ip), vehicle: saline): 164 % of control | T/C (dose: 2.0 mg/kg/injection, schedule: Q04DX003 (ip), vehicle: water): 152 % of control and 161 % of control | T/C (dose: 2.0 mg/kg/injection, schedule: Q04DX003 (iv), vehicle: water): 111 % of control | T/C (dose: 3.12 mg/kg/injection, schedule: Q04DX003 (ip), vehicle: saline): 172 % of control | T/C (dose: 3.6 mg/kg/injection, schedule: Q04DX002 (ip), vehicle: saline): 176 % of control | T/C (dose: 4.0 mg/kg/injection, schedule: Q04DX003 (iv), vehicle: water): 99 % of control | T/C (dose: 4.5 mg/kg/injection, schedule: Q04DX002 (ip), vehicle: saline): 151 % of control | T/C (dose: 6.0 mg/kg/injection, schedule: Q04DX002 (ip), vehicle: saline): 188 % of control | T/C (dose: 6.25 mg/kg/injection, schedule: Q04DX003 (ip), vehicle: saline): 150 % of control | T/C (dose: 7.5 mg/kg/injection, schedule: Q04DX002 (ip), vehicle: saline): 94 % of control | T/C (dose: 12.5 mg/kg/injection, schedule: Q04DX003 (ip), vehicle: saline): 170 % of control | T/C (dose: 50.0 mg/kg/injection, schedule: Q04DX003 (ip), vehicle: saline): 93 % of control | T/C (dose: 100.0 mg/kg/injection, schedule: Q04DX003 (ip), vehicle: saline): 94 % of control

Cc1nn(-c2ccccc2)c(=O)n2c(-n3c(C)nn(-c4ccccc4)c3=O)nnc12
T/C (dose: 100.0 mg/kg/injection, schedule: Q01DX001 (ip), vehicle: saline with Tween-80): 102 % of control | T/C (dose: 200.0 mg/kg/injection, schedule: Q01DX001 (ip), vehicle: saline with Tween-80): 105 % of control | T/C (dose: 400.0 mg/kg/injection, schedule: Q01DX001 (ip), vehicle: saline with Tween-80): 99 % of control

[O]=[Ge]=[O]
T/C (dose: 50.0 mg/kg/injection, schedule: Q01DX009 (ip), vehicle: saline): 111 % of control | T/C (dose: 100.0 mg/kg/injection, schedule: Q01DX009 (ip), vehicle: saline): 104 % of control | T/C (dose: 200.0 mg/kg/injection, schedule: Q01DX009 (ip), vehicle: saline): 111 % of control

CN(C)c1ccc(/C=C/c2ccnc3ccc(Cl)cc23)cc1
T/C (dose: 25.0 mg/kg/injection, schedule: Q01DX009 (ip), vehicle: saline with Tween-80): 118 % of control

OCC1OC([Se])C(O)C(O)C1O.[CH3][Sb][CH3] (centres undefined)
T/C (dose: 60.0 mg/kg/injection, schedule: Q01DX005 (ip), vehicle: saline with Tween-80): 112 % of control | T/C (dose: 120.0 mg/kg/injection, schedule: Q01DX005 (ip), vehicle: saline with Tween-80): 104 % of control

CCOC(=O)c1c(N)[nH]c(SSc2[nH]c(N)c(C(=O)OCC)c2C(=O)OCC)c1C(=O)OCC
T/C (dose: 75.0 mg/kg/injection, schedule: Q01DX009 (ip), vehicle: saline): 118 % of control | T/C (dose: 300.0 mg/kg/injection, schedule: Q01DX009 (ip), vehicle: saline): 100 % of control
